These results are taken from PubChem BioAssay (NCI).

Where “and” joins values, the source holds several entries; their conditions need not be identical. Equal values may be shown once.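 Results reflect a 48-hour exposure of cells in 96-well plates to compound at five concentrations. Abbreviation: GI50, concentration required for 50% inhibition of growth. TGI denotes the concentration required for complete inhibition of growth.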 Where only a bound is given, the exact number is not on record here.

The first experiment has as its system HS 578T breast. Put plainly: growth of human tumour cells (NCI), 48 h.
`CNC(=O)Nc1ccc(-c2nc(N3CCOCC3)nc3c2cnn3C2CCOCC2)cc1`: the GI50 is 0.0503 µM and the TGI came out at 0.303 µM.

As to `N/C(=N\OC(=O)c1ccccc1)C(C(=O)NOC(=O)c1ccccc1)C1CCCCC1` (centres undefined), the GI50 is 2.57 µM and the TGI worked out at 7.93 µM.

Compound `CCOc1ccc(N=Nc2ccc3cc(/C(C)=N/NC(=O)/C(C#N)=C\c4ccc(N(CCC#N)CCC#N)cc4)c(=O)oc3c2)cc1` came in with a TGI of over 10 µM.

As to `O=C(O)c1cc[c]([Hg][S]c2ncnc3nc[nH]c23)cc1`, the GI50 was 1.5 µM and the TGI worked out at 6.06 µM.

Regarding `CC(C)(C)OC(=O)NCC(C#N)CNC(=O)OC(C)(C)C`, the TGI was over 100 µM.

Take `O=C(Nc1ccc(OC(F)(F)F)cc1)c1sccc1NCc1ccnc2ccccc12`: the GI50 is 3.39 µM and the TGI was determined as 26 µM.

In turn, `CCN(CC)c1ccc(NC(=S)NN(C)C)cc1` gave a TGI of over 10 µM.

In the case of `COc1ccc(-c2cc(-c3ccc(Cl)cc3)c(C#N)c(=O)n2CCCCC(=O)Nc2ccccc2N)cc1`, the GI50 was 8.18 µM and the TGI worked out at 52.4 µM.

Take `CN1CCCN(CCNc2nccc(-c3c(-c4cccc(O)c4)nc4sccn34)n2)S1(=O)=O`: the GI50 is 7.08 µM and 3.04 µM; the TGI was 75 µM and 26 µM.

With `CCOC(=O)c1c(NC(=O)c2ccc(C(C)C)cc2)sc2c(CN(C)C)c(O)ccc12`, the GI50 is 2.01 µM and the TGI is 4.37 µM.

Consider `COc1ccc(C(=O)N2c3ccccc3Sc3ccccc32)c(F)c1`, for which the GI50 is 0.377 µM and the TGI is over 100 µM.

`CC(O)CNC1=CC(=O)C(=O)c2ccccc21` (centres undefined) gave a TGI of 61.8 µM.

On to `CC1(C)N=C(N)N=C(N)N1c1ccc(CCc2ccccc2)c(Cl)c1`, for which the GI50 is 3.7 µM and the TGI was determined as 27.2 µM.

In another experiment the test system is MDA-MB-231 breast. Put plainly: growth of human tumour cells (NCI), 48 h.
As to `CNC(=O)Nc1ccc(-c2nc(N3CCOCC3)nc3c2cnn3C2CCOCC2)cc1`, the GI50 is 0.292 µM and the TGI was over 51.9 µM.

In the case of `N/C(=N\OC(=O)c1ccccc1)C(C(=O)NOC(=O)c1ccccc1)C1CCCCC1` (centres undefined), the GI50 was 18.1 µM and the TGI was 70.9 µM.

Regarding `CCOc1ccc(N=Nc2ccc3cc(/C(C)=N/NC(=O)/C(C#N)=C\c4ccc(N(CCC#N)CCC#N)cc4)c(=O)oc3c2)cc1`, the TGI was over 10 µM.

As to `O=C(O)c1cc[c]([Hg][S]c2ncnc3nc[nH]c23)cc1`, the GI50 was 6.59 µM and the TGI amounted to 21 µM.

In the case of `CC(C)(C)OC(=O)NCC(C#N)CNC(=O)OC(C)(C)C`, the TGI was over 100 µM.

Consider `O=C(Nc1ccc(OC(F)(F)F)cc1)c1sccc1NCc1ccnc2ccccc12`, for which the GI50 was 1.98 µM and the TGI is 15.5 µM.

On to `CCN(CC)c1ccc(NC(=S)NN(C)C)cc1`, for which the TGI is over 10 µM.

Turning to `COc1ccc(-c2cc(-c3ccc(Cl)cc3)c(C#N)c(=O)n2CCCCC(=O)Nc2ccccc2N)cc1`, the GI50 was 7.86 µM and the TGI is over 100 µM.

For the compound `CN1CCCN(CCNc2nccc(-c3c(-c4cccc(O)c4)nc4sccn34)n2)S1(=O)=O`, the GI50 is 10 µM and 8.06 µM; the TGI was 59.2 µM and > 84.4 µM.

As for `CCOC(=O)c1c(NC(=O)c2ccc(C(C)C)cc2)sc2c(CN(C)C)c(O)ccc12`, the GI50 was 1.95 µM and the TGI is 3.83 µM.

`COc1ccc(C(=O)N2c3ccccc3Sc3ccccc32)c(F)c1`: the GI50 was 3.52 µM and the TGI was over 100 µM.

On to `CC(O)CNC1=CC(=O)C(=O)c2ccccc21` (centres undefined), for which the TGI is 73.6 µM.

For `CC1(C)N=C(N)N=C(N)N1c1ccc(CCc2ccccc2)c(Cl)c1`, the GI50 is 1.09 µM and the TGI is 19.9 µM.

In another experiment the test system is OVCAR-4 ovarian. As to the kind of experiment: growth of human tumour cells (NCI), 48 h.
On to `CNC(=O)Nc1ccc(-c2nc(N3CCOCC3)nc3c2cnn3C2CCOCC2)cc1`, for which the GI50 was 0.191 µM.

Regarding `N/C(=N\OC(=O)c1ccccc1)C(C(=O)NOC(=O)c1ccccc1)C1CCCCC1` (centres undefined), the GI50 is 9.4 µM and the TGI is 37.6 µM.

Turning to `CCOc1ccc(N=Nc2ccc3cc(/C(C)=N/NC(=O)/C(C#N)=C\c4ccc(N(CCC#N)CCC#N)cc4)c(=O)oc3c2)cc1`, the TGI was over 10 µM.

As to `O=C(O)c1cc[c]([Hg][S]c2ncnc3nc[nH]c23)cc1`, the GI50 was 10.3 µM and the TGI is 28.9 µM.

`CC(C)(C)OC(=O)NCC(C#N)CNC(=O)OC(C)(C)C` returned a TGI of over 100 µM.

Consider `O=C(Nc1ccc(OC(F)(F)F)cc1)c1sccc1NCc1ccnc2ccccc12`, for which the GI50 is 4.57 µM and the TGI is over 100 µM.

The compound `CCN(CC)c1ccc(NC(=S)NN(C)C)cc1` returned a TGI of over 10 µM.

Take `COc1ccc(-c2cc(-c3ccc(Cl)cc3)c(C#N)c(=O)n2CCCCC(=O)Nc2ccccc2N)cc1`: the GI50 was 10.5 µM and the TGI is over 100 µM.

Consider `CN1CCCN(CCNc2nccc(-c3c(-c4cccc(O)c4)nc4sccn34)n2)S1(=O)=O`, for which the GI50 was 6.72 µM and 8.49 µM; the TGI was 52.2 µM and > 100 µM.

Take `CCOC(=O)c1c(NC(=O)c2ccc(C(C)C)cc2)sc2c(CN(C)C)c(O)ccc12`: the GI50 was 3.7 µM and the TGI worked out at 13.3 µM.

Consider `COc1ccc(C(=O)N2c3ccccc3Sc3ccccc32)c(F)c1`, for which the GI50 was 2.01 µM and the TGI is over 100 µM.

`CC(O)CNC1=CC(=O)C(=O)c2ccccc21` (centres undefined) returned a TGI of 26 µM.

With `CC1(C)N=C(N)N=C(N)N1c1ccc(CCc2ccccc2)c(Cl)c1`, the GI50 was 0.52 µM and the TGI amounted to 13.1 µM.

The test system of another experiment is SF-539 CNS. Put plainly: growth of human tumour cells (NCI), 48 h.
Take `CNC(=O)Nc1ccc(-c2nc(N3CCOCC3)nc3c2cnn3C2CCOCC2)cc1`: the GI50 was 0.205 µM and the TGI was 1.36 µM.

In the case of `N/C(=N\OC(=O)c1ccccc1)C(C(=O)NOC(=O)c1ccccc1)C1CCCCC1` (centres undefined), the GI50 was 7.22 µM and the TGI came out at 20.1 µM.

With `CCOc1ccc(N=Nc2ccc3cc(/C(C)=N/NC(=O)/C(C#N)=C\c4ccc(N(CCC#N)CCC#N)cc4)c(=O)oc3c2)cc1`, the TGI is over 10 µM.

Take `O=C(O)c1cc[c]([Hg][S]c2ncnc3nc[nH]c23)cc1`: the GI50 was 7.39 µM and the TGI worked out at 25.6 µM.

As for `CC(C)(C)OC(=O)NCC(C#N)CNC(=O)OC(C)(C)C`, the TGI is over 100 µM.

On to `O=C(Nc1ccc(OC(F)(F)F)cc1)c1sccc1NCc1ccnc2ccccc12`, for which the GI50 is 4.3 µM and the TGI is over 100 µM.

For `CCN(CC)c1ccc(NC(=S)NN(C)C)cc1`, the TGI was over 10 µM.

`COc1ccc(-c2cc(-c3ccc(Cl)cc3)c(C#N)c(=O)n2CCCCC(=O)Nc2ccccc2N)cc1`: the GI50 was 19.4 µM and the TGI was over 100 µM.

For `CN1CCCN(CCNc2nccc(-c3c(-c4cccc(O)c4)nc4sccn34)n2)S1(=O)=O`, the GI50 was 18.7 µM and 22.2 µM; the TGI was 75 µM and > 100 µM.

On to `CCOC(=O)c1c(NC(=O)c2ccc(C(C)C)cc2)sc2c(CN(C)C)c(O)ccc12`, for which the GI50 was 1.74 µM and the TGI turned out to be 3.23 µM.

As to `COc1ccc(C(=O)N2c3ccccc3Sc3ccccc32)c(F)c1`, the GI50 is 0.409 µM and the TGI worked out at 3.36 µM.

With `CC(O)CNC1=CC(=O)C(=O)c2ccccc21` (centres undefined), the TGI was 38.5 µM.

Take `CC1(C)N=C(N)N=C(N)N1c1ccc(CCc2ccccc2)c(Cl)c1`: the GI50 was 0.131 µM and the TGI turned out to be 12.4 µM.

The subject of the next experiment is SW-620 colon. Put plainly: growth of human tumour cells (NCI), 48 h.
With `CNC(=O)Nc1ccc(-c2nc(N3CCOCC3)nc3c2cnn3C2CCOCC2)cc1`, the GI50 is 0.332 µM and the TGI is over 100 µM.

Regarding `N/C(=N\OC(=O)c1ccccc1)C(C(=O)NOC(=O)c1ccccc1)C1CCCCC1` (centres undefined), the GI50 is 11.5 µM and the TGI was 27.7 µM.

The compound `CCOc1ccc(N=Nc2ccc3cc(/C(C)=N/NC(=O)/C(C#N)=C\c4ccc(N(CCC#N)CCC#N)cc4)c(=O)oc3c2)cc1` came in with a TGI of over 10 µM.

For the compound `O=C(O)c1cc[c]([Hg][S]c2ncnc3nc[nH]c23)cc1`, the GI50 is 11.4 µM and the TGI was 23.5 µM.

`CC(C)(C)OC(=O)NCC(C#N)CNC(=O)OC(C)(C)C`: the TGI was over 100 µM.

`O=C(Nc1ccc(OC(F)(F)F)cc1)c1sccc1NCc1ccnc2ccccc12`: the GI50 is 5.03 µM and the TGI is over 100 µM.

`CCN(CC)c1ccc(NC(=S)NN(C)C)cc1` came in with a TGI of over 10 µM.

In the case of `COc1ccc(-c2cc(-c3ccc(Cl)cc3)c(C#N)c(=O)n2CCCCC(=O)Nc2ccccc2N)cc1`, the GI50 is 12.6 µM and the TGI is over 100 µM.

On to `CN1CCCN(CCNc2nccc(-c3c(-c4cccc(O)c4)nc4sccn34)n2)S1(=O)=O`, for which the GI50 was 18.7 µM and 19.1 µM; the TGI was 75 µM and > 100 µM.

As to `CCOC(=O)c1c(NC(=O)c2ccc(C(C)C)cc2)sc2c(CN(C)C)c(O)ccc12`, the GI50 is 1.7 µM and the TGI amounted to 3.41 µM.

With `COc1ccc(C(=O)N2c3ccccc3Sc3ccccc32)c(F)c1`, the GI50 was 0.458 µM and the TGI was over 100 µM.

Consider `CC(O)CNC1=CC(=O)C(=O)c2ccccc21` (centres undefined), for which the TGI stood at 40.1 µM.

As to `CC1(C)N=C(N)N=C(N)N1c1ccc(CCc2ccccc2)c(Cl)c1`, the GI50 was 0.0388 µM and the TGI was found to be 13.8 µM.
